Reference: patent US8952024B2, “Herbicidal pyrimidone derivatives” (E I du Pont de Nemours and Company, priority 2009, dated 2015)

How the values were obtained:
Assay type in all cases: in vivo
[1] = tested on: morningglory (Ipomoea spp.); assay: Test A pre-/postemergence plant response
Text: (§1) Seeds of barnyardgrass (Echinochloa crus-galli), large crabgrass (Digitaria sanguinalis), giant foxtail (Setaria faberii), morningglory (Ipomoea spp.), pigweed (Amaranthus retroflexus), velvetleaf (Abutilon theophrasti), wheat (Triticum aestivum) and corn (Zea mays) were planted into a blend of loam soil and sand and treated preemergence with a directed soil spray using test chemicals formulated in a non-phytotoxic solvent mixture which included a surfactant. At the same time these species were also treated with postemergence applications of test compounds formulated in the same manner.
(§2) Plants ranged in height from two to ten cm and were in the one- to two-leaf stage for the postemergence treatment. Treated plants and untreated controls were maintained in a greenhouse for approximately ten days, after which time all treated plants were compared to untreated controls and visually evaluated for injury. Plant response ratings, summarized in Table A, are based on a 0 to 100 scale where 0 is no effect and 100 is complete control. A dash (-) response means no test result.

[2] = tested on: large crabgrass (Digitaria sanguinalis); assay: Test A pre-/postemergence plant response
Text: as §1, §2

[3] = tested on: barnyardgrass (Echinochloa crus-galli); assay: Test A pre-/postemergence plant response
Text: as §1, §2

[4] = tested on: velvetleaf (Abutilon theophrasti); assay: Test A pre-/postemergence plant response
Text: as §1, §2

[5] = tested on: pigweed (Amaranthus retroflexus); assay: Test A pre-/postemergence plant response
Text: as §1, §2

[6] = tested on: giant foxtail (Setaria faberii); assay: Test A pre-/postemergence plant response
Text: as §1, §2

corn (Zea mays) = assay: Test A pre-/postemergence plant response
Text: as §1, §2

[7] = tested on: wheat (Triticum aestivum); assay: Test A pre-/postemergence plant response
Text: as §1, §2

[8] = tested on: barnyardgrass (Echinochloa crus-galli); assay: Test B flooded paddy test; details: for Plant response rating, Flood, Barnyardgrass: 250 g ai/ha, flooded paddy test, visual rating on 0 to 100 scale (0 no effect, 100 complete control) after 13 to 15 days; for Plant response rating, Barnyardgrass: Flood (flooded paddy test), 62 g ai/ha, scale of 0 to 100 where 0 is no effect and 100 is complete control, 13 to 15 days
How it was run: (§3)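 Visual scores run from 0 (no effect) to 100 (complete control), assigned by comparison with controls 13 to 15 days after treatment. Test compounds went straight into water standing 3 cm above the soil, around plants at the 2-leaf stage kept in a greenhouse.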

[9] = tested on: umbrella sedge (Cyperus difformis); assay: Test B flooded paddy test; details: for Plant response rating, Flood, Sedge, Umbrella: 250 g ai/ha, flooded paddy test, visual rating on 0 to 100 scale (0 no effect, 100 complete control) after 13 to 15 days; for Plant response rating, Sedge, Umbrella: Flood (flooded paddy test), 62 g ai/ha, scale of 0 to 100 where 0 is no effect and 100 is complete control, 13 to 15 days
How it was run: as §3

rice (Oryza sativa) = assay: Test B flooded paddy test; details: for Plant response rating, Flood, Rice: 250 g ai/ha, flooded paddy test, visual rating on 0 to 100 scale (0 no effect, 100 complete control) after 13 to 15 days; for Plant response rating, Rice: Flood (flooded paddy test), 62 g ai/ha, scale of 0 to 100 where 0 is no effect and 100 is complete control, 13 to 15 days
How it was run: as §3

[10] = tested on: ducksalad (Heteranthera limosa); assay: Test B flooded paddy test; details: for Plant response rating, Flood, Ducksalad: 250 g ai/ha, flooded paddy test, visual rating on 0 to 100 scale (0 no effect, 100 complete control) after 13 to 15 days; for Plant response rating, Ducksalad: Flood (flooded paddy test), 62 g ai/ha, scale of 0 to 100 where 0 is no effect and 100 is complete control, 13 to 15 days
How it was run: as §3

[11] = Postemergence, 125 g ai/ha, 0 to 100 scale where 0 is no effect and 100 is complete control
[12] = Postemergence, 500 g ai/ha, 0 to 100 scale, 0 = no effect, 100 = complete control, approx. ten days
[13] = Preemergence, 125 g ai/ha, 0 to 100 scale, 0 = no effect, 100 = complete control
[14] = Preemergence, 500 g ai/ha, visual injury, 0 to 100 scale (0 no effect, 100 complete control), approx. ten days

SMILES	Plant response rating, Morningglory [1, 11]	Plant response rating, Morningglory [1, 12]	Plant response rating, Morningglory [1, 13]	Plant response rating, Morningglory [1, 14]	Plant response rating, Crabgrass, Large [2, 11]	Plant response rating, Crabgrass, Large [2, 12]	Plant response rating, Crabgrass, Large [2, 13]	Plant response rating, Crabgrass, Large [2, 14]	Plant response rating, Barnyardgrass [3, 11]	Plant response rating, Barnyardgrass [3, 12]	Plant response rating, Barnyardgrass [3, 13]	Plant response rating, Barnyardgrass [3, 14]	Plant response rating, Velvetleaf [4, 11]	Plant response rating, Velvetleaf [4, 12]	Plant response rating, Velvetleaf [4, 13]	Plant response rating, Velvetleaf [4, 14]	Plant response rating, Pigweed [5, 11]	Plant response rating, Pigweed [5, 12]	Plant response rating, Pigweed [5, 13]	Plant response rating, Pigweed [5, 14]	other results
CCCn1c(-c2ccn(C)n2)ncc(C(=O)C2=C(O)CCCC2=O)c1=O [Compound 135]	70	90	20	50	40	70	0	40	10	30	0	0	100	100	40	70	80	90	40	80	Plant response rating, Foxtail, Giant [6, 11]: 0; Plant response rating, Foxtail, Giant [6, 12]: 0; Plant response rating, Foxtail, Giant [6, 13]: 0; Plant response rating, Foxtail, Giant [6, 14]: 0; Plant response rating, Corn (corn (Zea mays); [11]): 0; Plant response rating, Corn (corn (Zea mays); [12]): 0; Plant response rating, Corn (corn (Zea mays); [13]): 0; Plant response rating, Corn (corn (Zea mays); [14]): 0; Plant response rating, Wheat [7, 11]: 0; Plant response rating, Wheat [7, 12]: 0; Plant response rating, Wheat [7, 13]: 0; Plant response rating, Wheat [7, 14]: 0; Plant response rating, Flood, Barnyardgrass [8]: 0; Plant response rating, Barnyardgrass [8]: 0; Plant response rating, Flood, Sedge, Umbrella [9]: 0; Plant response rating, Sedge, Umbrella [9]: 0; Plant response rating, Flood, Rice (rice (Oryza sativa)): 0; Plant response rating, Rice (rice (Oryza sativa)): 0; Plant response rating, Flood, Ducksalad [10]: 40; Plant response rating, Ducksalad [10]: 30
COCCn1c(-c2ccn(C)n2)ncc(C(=O)C2=C(O)CCCC2=O)c1=O [Compound 136]	100	100	30	60	80	90	20	60	30	80	0	60	100	100	70	100	80	100	80	100	Plant response rating, Foxtail, Giant [6, 11]: 30; Plant response rating, Foxtail, Giant [6, 12]: 50; Plant response rating, Foxtail, Giant [6, 13]: 0; Plant response rating, Foxtail, Giant [6, 14]: 0; Plant response rating, Corn (corn (Zea mays); [11]): 0; Plant response rating, Corn (corn (Zea mays); [12]): 0; Plant response rating, Corn (corn (Zea mays); [13]): 0; Plant response rating, Corn (corn (Zea mays); [14]): 0; Plant response rating, Wheat [7, 11]: 0; Plant response rating, Wheat [7, 12]: 0; Plant response rating, Wheat [7, 13]: 0; Plant response rating, Wheat [7, 14]: 0; Plant response rating, Flood, Barnyardgrass [8]: 25; Plant response rating, Barnyardgrass [8]: 20; Plant response rating, Flood, Sedge, Umbrella [9]: 50; Plant response rating, Sedge, Umbrella [9]: 45; Plant response rating, Flood, Rice (rice (Oryza sativa)): 20; Plant response rating, Rice (rice (Oryza sativa)): 15; Plant response rating, Flood, Ducksalad [10]: 75; Plant response rating, Ducksalad [10]: 55
COCCn1c(-c2cccc(Br)c2)ncc(C(=O)C2=C(O)CCCC2=O)c1=O [Compound 139]	100	100	0	80	70	80	90	100	60	80	40	90	100	100	60	90	90	100	70	100	Plant response rating, Foxtail, Giant [6, 11]: 50; Plant response rating, Foxtail, Giant [6, 12]: 80; Plant response rating, Foxtail, Giant [6, 13]: 20; Plant response rating, Foxtail, Giant [6, 14]: 70; Plant response rating, Corn (corn (Zea mays); [11]): 20; Plant response rating, Corn (corn (Zea mays); [12]): 40; Plant response rating, Corn (corn (Zea mays); [13]): 0; Plant response rating, Corn (corn (Zea mays); [14]): 20; Plant response rating, Wheat [7, 11]: 20; Plant response rating, Wheat [7, 12]: 40; Plant response rating, Wheat [7, 13]: 0; Plant response rating, Wheat [7, 14]: 10; Plant response rating, Flood, Barnyardgrass [8]: 35; Plant response rating, Barnyardgrass [8]: 10; Plant response rating, Flood, Sedge, Umbrella [9]: 85; Plant response rating, Sedge, Umbrella [9]: 70; Plant response rating, Flood, Rice (rice (Oryza sativa)): 30; Plant response rating, Rice (rice (Oryza sativa)): 10; Plant response rating, Flood, Ducksalad [10]: 90; Plant response rating, Ducksalad [10]: 75
